From US10889543B2, “Fine-tune modulators of neuronal excitability for neuropsychiatric disorders” (THE BOARD OF REGENTS OF THE UNIVERSITY OF TEXAS SYSTEM, priority 2016, dated 2021)
Residues, ends and D or L forms follow the SMILES beside them. *: point of attachment. Cbz = O=C(OCc1ccccc1)*; Boc = CC(C)(C)OC(=O)*

Columns and labels:
Format in all cases: cell-based
Nav1.6 channels = target: T1, Nav1.6 channels (Homo sapiens, UniProt Q9UQD0); assay: Whole-cell patch clamp of Na+ currents in HEK-Nav1.6 cells expressing GFP (Nav1.6 channels alone)
T1 construct: expressed in transfected cells; host or cells: HEK-Nav1.6 (HEK293 stably expressing Nav1.6, G418 selection)
T1 sequence (Q9UQD0 whole entry): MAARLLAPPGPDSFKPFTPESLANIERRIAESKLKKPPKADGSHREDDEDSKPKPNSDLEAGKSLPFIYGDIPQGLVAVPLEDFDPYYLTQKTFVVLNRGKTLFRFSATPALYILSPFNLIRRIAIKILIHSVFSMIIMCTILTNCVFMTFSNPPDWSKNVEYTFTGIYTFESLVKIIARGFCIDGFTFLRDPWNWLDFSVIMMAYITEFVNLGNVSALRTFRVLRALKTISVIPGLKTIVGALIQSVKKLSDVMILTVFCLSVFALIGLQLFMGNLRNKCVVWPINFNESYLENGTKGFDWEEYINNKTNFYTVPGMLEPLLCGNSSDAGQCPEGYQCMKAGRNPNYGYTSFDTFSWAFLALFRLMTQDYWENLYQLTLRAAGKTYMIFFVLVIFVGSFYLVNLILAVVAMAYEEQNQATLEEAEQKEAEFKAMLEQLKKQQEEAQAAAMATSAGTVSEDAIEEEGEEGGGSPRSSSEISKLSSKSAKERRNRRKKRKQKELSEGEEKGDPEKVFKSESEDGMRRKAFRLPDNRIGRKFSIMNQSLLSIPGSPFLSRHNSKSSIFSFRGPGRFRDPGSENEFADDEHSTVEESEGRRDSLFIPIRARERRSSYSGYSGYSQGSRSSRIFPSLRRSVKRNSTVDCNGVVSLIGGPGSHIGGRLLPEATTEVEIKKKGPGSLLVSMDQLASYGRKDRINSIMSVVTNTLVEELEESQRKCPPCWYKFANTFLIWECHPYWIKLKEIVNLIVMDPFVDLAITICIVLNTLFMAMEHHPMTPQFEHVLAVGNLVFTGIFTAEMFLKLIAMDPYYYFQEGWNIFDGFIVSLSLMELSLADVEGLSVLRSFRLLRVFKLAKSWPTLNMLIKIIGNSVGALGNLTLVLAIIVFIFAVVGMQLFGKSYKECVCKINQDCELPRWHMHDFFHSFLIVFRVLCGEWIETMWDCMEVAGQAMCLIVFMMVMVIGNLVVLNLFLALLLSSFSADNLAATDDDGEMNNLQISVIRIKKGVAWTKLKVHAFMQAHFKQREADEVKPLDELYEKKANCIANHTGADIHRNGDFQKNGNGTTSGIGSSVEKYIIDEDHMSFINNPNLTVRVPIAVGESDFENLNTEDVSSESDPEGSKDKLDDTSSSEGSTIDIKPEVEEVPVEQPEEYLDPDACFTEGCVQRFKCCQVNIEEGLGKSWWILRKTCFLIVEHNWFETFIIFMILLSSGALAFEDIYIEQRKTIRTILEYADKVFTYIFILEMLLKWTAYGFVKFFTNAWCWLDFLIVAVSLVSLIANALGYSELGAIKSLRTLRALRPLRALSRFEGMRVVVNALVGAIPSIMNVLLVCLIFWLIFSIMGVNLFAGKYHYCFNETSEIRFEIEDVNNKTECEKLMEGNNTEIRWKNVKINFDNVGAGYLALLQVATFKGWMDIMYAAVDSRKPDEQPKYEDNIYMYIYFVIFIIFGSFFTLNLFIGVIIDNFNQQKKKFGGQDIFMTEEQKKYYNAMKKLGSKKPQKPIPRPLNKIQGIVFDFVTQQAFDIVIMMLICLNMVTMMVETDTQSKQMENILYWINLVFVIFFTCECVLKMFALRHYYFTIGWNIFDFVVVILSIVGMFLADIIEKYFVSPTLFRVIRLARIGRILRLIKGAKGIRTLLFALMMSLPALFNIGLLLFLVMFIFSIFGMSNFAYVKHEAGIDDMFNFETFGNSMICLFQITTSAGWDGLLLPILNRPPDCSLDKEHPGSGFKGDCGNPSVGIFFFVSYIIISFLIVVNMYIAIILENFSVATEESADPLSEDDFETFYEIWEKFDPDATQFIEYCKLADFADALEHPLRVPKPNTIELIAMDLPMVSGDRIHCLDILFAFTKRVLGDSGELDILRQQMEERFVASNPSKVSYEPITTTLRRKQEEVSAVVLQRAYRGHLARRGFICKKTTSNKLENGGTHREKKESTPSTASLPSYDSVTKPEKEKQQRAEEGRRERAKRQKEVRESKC
Protocol: (§1) To determine the role of compounds of the invention in Nav1.6 channels alone and Nav1.6 channels in the presence of FGF14, 2×2 experimental groups using compound ZL0181, an exemplary embodiment, were designed. HEK-Nav1.6 cells were transiently transfected with GFP or […] and treated with either DMSO (0.15% final concentration, control group) or ZL0181 (20 μM, final concentration) 20-60 min prior to the experiments. […] Thus, ZL0181 inhibits peak current amplitude of Na1.6 current.
(§2) Furthermore, using a range of doses from 1 μM to 100 μM a dose-response profile for ZL0181 in HEK293-Nav1.6 cells alone and HEK-Nav1.6 cells transfected with FGF14 was developed.
(§3) HEK-Nav1.1, […] HEK-Nav1.6 were maintained in medium composed of equal volumes of DMEM and F-12 (Invitrogen) supplemented with 0.05% glucose, 0.5 mm pyruvate, 10% fetal bovine serum, 100 units/ml penicillin, 100 μg/ml streptomycin incubated at 37° C. with 5% CO2. For selection of Nav1.1 and Nav1.2, 500 μg/ml G418 (Invitrogen) was used, and for selection of Nav1.6, 80 μg/ml G418 (Invitrogen) was used. Cells were transfected according to manufacturer's instructions at 90-100% confluency using Lipofectamine 2000 (Invitrogen). See e.g., Shavkunov, A., et al. Assay and drug development technologies 10(2):148-160 (2012).
(§4) Detailed methods for path-clamp experiments is known in the art. See e.g., Ali, S. R., et al., Journal of Biological Chemistry 291:11268 (2016).

[1] = target: T2, Nav1.6 channel in the presence of FGF14 (Homo sapiens, UniProt Q9UQD0); assay: Whole-cell patch clamp of Na+ currents in HEK-Nav1.6 cells expressing FGF14-GFP
T2 construct: expressed in transfected cells; host or cells: HEK-Nav1.6 cells transiently transfected with FGF14-GFP
T2 sequence (Q9UQD0 whole entry): as above
Protocol: as §1
The role of ZOL181 in Nav1.6 channel in the presence of FGF14 was then investigated. […] Furthermore, the role of ZL0181 to modulate the biophysical properties of Nav1.6 channel in the presence of FGF14 was investigated. In consistency with previous studies, voltage dependence of activation and steady-state inactivation kinetics changes in the cells expressing FGF14-GFP compared with control (FIG. 3C). […] Thus, ZL0181 works synergistically with FGF14 to regulate the peak current amplitude as well as the inactivation kinetics.
as §2, §3, §4

Nav1.1 channels = target: T3, Nav1.1 channels (Homo sapiens, UniProt P35498); assay: Patch clamp of Na+ currents in Nav1.1 channels
T3 construct: expressed in transfected cells
Protocol: The role of ZL0181 in regulating Nav1.1 and Nav1.2 channels was also investigated.
as §3, §4

FGF14:Nav1.6 complex = target: T4, FGF14:Nav1.6 complex (Homo sapiens, UniProt Q92915); assay: Split-luciferase complementation assay (LCA) in HEK293 cells expressing CLuc-FGF14 and CD4-Nav1.6-NLuc; settings: 50 μM, normalized to DMSO control
T4 construct: FGF14 and the C-tail of Nav1.6 channels are fused to vectors expressing CLuc and NLuc luciferase reporter; expressed in transfected cells; host or cells: HEK293, transient transfection
T4 sequence (Q92915 1-252 isoform Q92915-2): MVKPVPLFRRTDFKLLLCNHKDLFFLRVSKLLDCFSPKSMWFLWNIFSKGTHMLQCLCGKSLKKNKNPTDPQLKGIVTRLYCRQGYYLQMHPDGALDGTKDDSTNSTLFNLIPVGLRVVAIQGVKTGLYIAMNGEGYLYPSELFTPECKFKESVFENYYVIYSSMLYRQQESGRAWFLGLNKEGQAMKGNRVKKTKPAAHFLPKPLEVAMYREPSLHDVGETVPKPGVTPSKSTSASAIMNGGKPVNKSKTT
Protocol: Detailed methods for LCA can be found is known in the art. See e.g., Shavkunov A. S., et al., Methods in Molecular Biology 1278:497-514 (2015). Statistical values were calculated as mean and standard error of the mean (mean±SEM), unless otherwise specified. The statistical significance (*p<0.05) of different groups was determined by Student's t-test, one-way ANOVA with post-hoc Bonferroni's method or Kruskal-Wallis one-way ANOVA on ranks with post-hoc Dunn's method using Sigma Stat (San Jose, Calif.) and Graph PrismR (La Jolla, Calif.) software. Dose-response modulation was determined by: y=START+(END−START)*x^n/(k^n+x^n) where k, Michaelis constant; n, cooperative sites; x, independent variable; y, dependable variable.
To monitor the role of compounds of the invention in the FGF14:Nav1.6 complex, certain embodiments of the invention were screened by split-luciferase complementation assay (LCA) where FGF14 and the C-tail of Nav1.6 channels are fused to vectors expressing CLuc and NLuc luciferase reporter. Compounds of the invention, as exemplified by, compounds ZL0141, ZL0148, ZL0181, and ZL0182 (see FIG. 1) were tested at 50 μM in HEK293 cells expressing CLuc-FGF14 and CD4:Nav1.6-NLuc. […] None of the tested compounds interfered with the full-length luciferase enzyme (FIG. 2B, Chart C). Dose-response studies were then performed with compounds ZL0148, ZL0181, and ZL0182 against the FGF14:Nav1.6 complex.

Compound: CC(C)C[C@H](NC(=O)[C@H](Cc1ccccc1)NC(=O)OCc1ccccc1)C(=O)N1CCC[C@H]1C(=O)N[C@@H](CCCCNC(=O)OC(C)(C)C)C(N)=O [ZL0181, Z-Phe-Leu-Pro-Lys(Boc)-NH2] (Cbz-FLPK(Boc)-NH2)
- activation and inactivation properties of Nav channel alone (Nav1.6 channels; 20 μM, HEK-Nav1.6 cells with GFP): does not change activation and inactivation properties
- IC50 (Nav1.6 channels; HEK293-Nav1.6 cells alone, doses 1 μM to 100 μM, read-out: IC50, inhibition of Nav1.6 encoded currents): 19.7 ± 5.7 µM
- Nav1.6-mediated peak current density (Nav1.6 channels; HEK-Nav1.6 cells with GFP, pretreated with 20 μM, n=12, DMSO control −73.8±13.6): −20.9±3.4 pA/pF
- steady-state inactivation (depolarizing shift induced by FGF14-GFP) ([1]; FGF14-GFP-expressing HEK-Nav1.6 cells, 20 μM): rescued the depolarizing shift of the steady-state inactivation induced by FGF14-GFP expression back to control levels
- Na+ current peak amplitude (peak current density) ([1]; FGF14-GFP-expressing HEK-Nav1.6 cells, 20 μM, n=19, DMSO control −18.1±3.8): −7.4±4.4 pA/pF
- IC50 ([1]; HEK-Nav1.6 cells transfected with FGF14, doses 1 μM to 100 μM, read-out: IC50, inhibition of Nav1.6 encoded currents in presence of FGF14): 11.5 ± 1.3 µM
- peak current amplitude in Nav1.1 channels (Nav1.1 channels): suppresses peak current amplitude
- synergy with FGF14 on Na+ current and rescue of V1/2 of inactivation, Nav1.1 (Nav1.1 channels; in presence of FGF14): does neither act synergistically to further suppress Na+ current in presence of FGF14 or rescue the voltage-dependence inactivation property
- luminescence response compared to control (DMSO) (FGF14:Nav1.6 complex): 75±6%
